Laboratory results taken from ChEMBL document CHEMBL1139211, “E/Z-rubrolide O, an anti-inflammatory halogenated furanone from the New Zealand ascidian Synoicum n. sp” (J Nat Prod, 2007).
The source made the active and inactive calls. The rule behind the calls is not given here.

How the values were obtained:
HL-60 = experiment: Antiproliferative activity against HL60 cells by MTT assay; assay type: functional, cell-based; conditions: Homo sapiens
[1] = Viability of human neutrophils by trypan blue assay at 500 uM; assay type: functional, Neutrophil
Neutrophil [2] = experiment: Inhibition of superoxide production in human neutrophils; assay type: functional, cell-based
Neutrophil [3] = experiment: Inhibition of PMA-induced adhesion of neutrophils; assay type: functional, cell-based; conditions: Homo sapiens

IC50 (HL-60): 33 µM
IC50 (Neutrophil [2]): 35 µM
SMILES: O=C1O/C(=C\c2ccc(O)c(Br)c2)C(c2cc(Br)c(O)c(Br)c2)=C1Cl [RUBROLIDE O]
Activity [1]: 87%
Activity (Neutrophil [3]): Active
